Reference: PubChem BioAssay (NCI)
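Test compounds were applied to cells in 96-well plates for 48 hours at 5 doses. At the TGI there is no net growth.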

What was measured:
Assay in all cases: growth of human tumour cells (NCI), 48 h
786-0 renal = system: 786-0 renal
A498 renal = system: A498 renal
A549 NSCLC = system: A549 NSCLC
ACHN renal = system: ACHN renal
BT-549 breast = system: BT-549 breast
CAKI-1 renal = system: CAKI-1 renal
DU-145 prostate = system: DU-145 prostate
EKVX NSCLC = system: EKVX NSCLC
HCC-2998 colon = system: HCC-2998 colon
HCT-116 colon = system: HCT-116 colon
HCT-15 colon = system: HCT-15 colon
HL-60(TB) leukemia = system: HL-60(TB) leukemia
HOP-62 NSCLC = system: HOP-62 NSCLC
HOP-92 NSCLC = system: HOP-92 NSCLC
HS 578T breast = system: HS 578T breast
HT29 colon = system: HT29 colon
IGROV1 ovarian = system: IGROV1 ovarian
K-562 leukemia = system: K-562 leukemia
KM12 colon = system: KM12 colon
LOX IMVI melanoma = system: LOX IMVI melanoma
M14 melanoma = system: M14 melanoma
MALME-3M melanoma = system: MALME-3M melanoma
MCF7 breast = system: MCF7 breast
MDA-MB-435 = system: MDA-MB-435
MDA-N = system: MDA-N
MOLT-4 leukemia = system: MOLT-4 leukemia
NCI-H226 lung = system: NCI-H226 lung
NCI-H23 lung = system: NCI-H23 lung
NCI-H460 lung = system: NCI-H460 lung
NCI-H522 lung = system: NCI-H522 lung
NCI/ADR-RES ovarian = system: NCI/ADR-RES ovarian
OVCAR-3 ovarian = system: OVCAR-3 ovarian
OVCAR-4 ovarian = system: OVCAR-4 ovarian
OVCAR-5 ovarian = system: OVCAR-5 ovarian
OVCAR-8 ovarian = system: OVCAR-8 ovarian
PC-3 prostate = system: PC-3 prostate
RPMI-8226 leukemia = system: RPMI-8226 leukemia
RXF 393 renal = system: RXF 393 renal
SF-268 CNS = system: SF-268 CNS
SF-295 CNS = system: SF-295 CNS
SK-MEL-2 melanoma = system: SK-MEL-2 melanoma
SK-MEL-28 melanoma = system: SK-MEL-28 melanoma
SK-MEL-5 melanoma = system: SK-MEL-5 melanoma
SK-OV-3 ovarian = system: SK-OV-3 ovarian
SN12C renal = system: SN12C renal
SNB-19 CNS = system: SNB-19 CNS
SW-620 colon = system: SW-620 colon
T-47D breast = system: T-47D breast
TK-10 renal = system: TK-10 renal
UACC-257 melanoma = system: UACC-257 melanoma
UACC-62 melanoma = system: UACC-62 melanoma
UO-31 renal = system: UO-31 renal
CCRF-CEM leukemia = system: CCRF-CEM leukemia
COLO 205 colon = system: COLO 205 colon
MDA-MB-231 breast = system: MDA-MB-231 breast
SF-539 CNS = system: SF-539 CNS
SNB-75 CNS = system: SNB-75 CNS
SR leukemia = system: SR leukemia
U251 CNS = system: U251 CNS

`O=C1CNC(=O)/C(=C/c2c[nH]c3ccccc23)N1` gave a TGI (786-0 renal) of over 100 µM, a TGI (A498 renal) of over 100 µM and a TGI (A549 NSCLC) of over 100 µM. The TGI (ACHN renal) was over 100 µM, the TGI (BT-549 breast) was over 100 µM and the TGI (CAKI-1 renal) was over 100 µM. It also gave a TGI (DU-145 prostate) of over 100 µM, a TGI (EKVX NSCLC) of over 100 µM and a TGI (HCC-2998 colon) of over 100 µM. It also gave a TGI (HCT-116 colon) of over 100 µM, a TGI (HCT-15 colon) of over 100 µM and a TGI (HL-60(TB) leukemia) of over 100 µM. The TGI (HOP-62 NSCLC) was over 100 µM, the TGI (HOP-92 NSCLC) was over 100 µM and the TGI (HS 578T breast) was over 100 µM. For the same compound, the TGI (HT29 colon) was over 100 µM, the TGI (IGROV1 ovarian) was over 100 µM and the TGI (K-562 leukemia) was over 100 µM. For the same compound, the TGI (KM12 colon) was over 100 µM, the TGI (LOX IMVI melanoma) was over 100 µM and the TGI (M14 melanoma) was over 100 µM. It also gave a TGI (MALME-3M melanoma) of over 100 µM, a TGI (MCF7 breast) of over 100 µM and a TGI (MDA-MB-435) of over 100 µM. The TGI (MDA-N) was over 100 µM, the TGI (MOLT-4 leukemia) was over 100 µM and the TGI (NCI-H226 lung) was over 100 µM. The TGI (NCI-H23 lung) was over 100 µM, the TGI (NCI-H460 lung) was over 100 µM and the TGI (NCI-H522 lung) was over 100 µM. It also gave a TGI (NCI/ADR-RES ovarian) of over 100 µM, a TGI (OVCAR-3 ovarian) of over 100 µM and a TGI (OVCAR-4 ovarian) of over 100 µM. It also gave a TGI (OVCAR-5 ovarian) of over 100 µM, a TGI (OVCAR-8 ovarian) of over 100 µM and a TGI (PC-3 prostate) of over 100 µM. For the same compound, the TGI (RPMI-8226 leukemia) was over 100 µM, the TGI (RXF 393 renal) was over 100 µM and the TGI (SF-268 CNS) was over 100 µM. For the same compound, the TGI (SF-295 CNS) was over 100 µM, the TGI (SK-MEL-2 melanoma) was over 100 µM and the TGI (SK-MEL-28 melanoma) was over 100 µM. It also gave a TGI (SK-MEL-5 melanoma) of over 100 µM, a TGI (SK-OV-3 ovarian) of over 100 µM and a TGI (SN12C renal) of over 100 µM. For the same compound, the TGI (SNB-19 CNS) was over 100 µM, the TGI (SW-620 colon) was over 100 µM and the TGI (T-47D breast) was over 100 µM. For the same compound, the TGI (TK-10 renal) was over 100 µM, the TGI (UACC-257 melanoma) was over 100 µM and the TGI (UACC-62 melanoma) was over 100 µM. For the same compound, the TGI (UO-31 renal) was over 100 µM.

`O=C1c2c(ccc3c2CCC3)CC1Cc1ccc2c(c1)CCC2` (stereo not given) was tested, and the TGI (786-0 renal) was 99.1 µM, the TGI (A498 renal) was over 100 µM and the TGI (A549 NSCLC) was over 100 µM. It also gave a TGI (ACHN renal) of over 100 µM, a TGI (BT-549 breast) of over 100 µM and a TGI (CCRF-CEM leukemia) of 37.8 µM. It also gave a TGI (COLO 205 colon) of 51.4 µM, a TGI (DU-145 prostate) of over 100 µM and a TGI (EKVX NSCLC) of over 100 µM. The TGI (HCC-2998 colon) was over 100 µM, the TGI (HCT-116 colon) was 47.2 µM and the TGI (HCT-15 colon) was over 100 µM. It also gave a TGI (HL-60(TB) leukemia) of 21.7 µM, a TGI (HOP-62 NSCLC) of 94.2 µM and a TGI (HS 578T breast) of 61.6 µM. For the same compound, the TGI (HT29 colon) was 60.9 µM, the TGI (IGROV1 ovarian) was over 100 µM and the TGI (K-562 leukemia) was 80.1 µM. For the same compound, the TGI (KM12 colon) was over 100 µM, the TGI (LOX IMVI melanoma) was over 100 µM and the TGI (M14 melanoma) was over 100 µM. For the same compound, the TGI (MALME-3M melanoma) was over 100 µM, the TGI (MCF7 breast) was 96.6 µM and the TGI (MDA-MB-231 breast) was 49 µM. For the same compound, the TGI (MDA-MB-435) was 92.4 µM, the TGI (MDA-N) was over 100 µM and the TGI (MOLT-4 leukemia) was 51.6 µM. For the same compound, the TGI (NCI-H226 lung) was over 100 µM, the TGI (NCI-H23 lung) was 85.9 µM and the TGI (NCI-H460 lung) was over 100 µM. The TGI (NCI/ADR-RES ovarian) was over 100 µM, the TGI (OVCAR-3 ovarian) was over 100 µM and the TGI (OVCAR-4 ovarian) was 85.4 µM. It also gave a TGI (OVCAR-5 ovarian) of over 100 µM, a TGI (OVCAR-8 ovarian) of over 100 µM and a TGI (RPMI-8226 leukemia) of 53.1 µM. The TGI (RXF 393 renal) was 69.1 µM, the TGI (SF-268 CNS) was over 100 µM and the TGI (SF-295 CNS) was 94.3 µM. It also gave a TGI (SF-539 CNS) of over 100 µM, a TGI (SK-MEL-2 melanoma) of 73.8 µM and a TGI (SK-MEL-28 melanoma) of over 100 µM. It also gave a TGI (SK-MEL-5 melanoma) of 27.9 µM, a TGI (SK-OV-3 ovarian) of over 100 µM and a TGI (SN12C renal) of over 100 µM. For the same compound, the TGI (SNB-19 CNS) was over 100 µM, the TGI (SNB-75 CNS) was 56 µM and the TGI (SR leukemia) was 30.9 µM. The TGI (SW-620 colon) was over 100 µM, the TGI (T-47D breast) was 27 µM and the TGI (TK-10 renal) was over 100 µM. For the same compound, the TGI (U251 CNS) was over 100 µM, the TGI (UACC-257 melanoma) was 61.9 µM and the TGI (UACC-62 melanoma) was 42.7 µM. The TGI (UO-31 renal) was over 100 µM.

`CN(C)CCNCc1ccc2c(-c3ccccc3)nc3cc(Cl)c(Cl)cc3n12` gave a TGI (786-0 renal) of 15.2 µM, a TGI (A498 renal) of 29.9 µM and a TGI (A549 NSCLC) of 24.3 µM. It also gave a TGI (ACHN renal) of 14.8 µM, a TGI (BT-549 breast) of 30.9 µM and a TGI (CAKI-1 renal) of 18.9 µM. The TGI (CCRF-CEM leukemia) was 29.4 µM, the TGI (COLO 205 colon) was 14.1 µM and the TGI (DU-145 prostate) was 23.3 µM. The TGI (EKVX NSCLC) was 30.2 µM, the TGI (HCC-2998 colon) was 5.83 µM and the TGI (HCT-116 colon) was 16.3 µM. For the same compound, the TGI (HCT-15 colon) was 23.2 µM, the TGI (HL-60(TB) leukemia) was 11.6 µM and the TGI (HOP-62 NSCLC) was 27.4 µM. For the same compound, the TGI (HOP-92 NSCLC) was 28.3 µM, the TGI (HS 578T breast) was 47.6 µM and the TGI (HT29 colon) was 16.7 µM. It also gave a TGI (IGROV1 ovarian) of 22.6 µM, a TGI (K-562 leukemia) of 31.9 µM and a TGI (KM12 colon) of 24.7 µM. It also gave a TGI (LOX IMVI melanoma) of 14.9 µM, a TGI (M14 melanoma) of 15.3 µM and a TGI (MALME-3M melanoma) of 33.1 µM. It also gave a TGI (MCF7 breast) of 19.1 µM, a TGI (MDA-MB-231 breast) of 25.2 µM and a TGI (MDA-MB-435) of 21.9 µM. For the same compound, the TGI (MDA-N) was 23.4 µM, the TGI (MOLT-4 leukemia) was 21.6 µM and the TGI (NCI-H226 lung) was 37.5 µM. The TGI (NCI-H23 lung) was 28.9 µM, the TGI (NCI-H460 lung) was 23.9 µM and the TGI (NCI-H522 lung) was 27.8 µM. The TGI (NCI/ADR-RES ovarian) was 31.4 µM, the TGI (OVCAR-3 ovarian) was 35.9 µM and the TGI (OVCAR-4 ovarian) was 26.7 µM. The TGI (OVCAR-5 ovarian) was 26.1 µM, the TGI (OVCAR-8 ovarian) was 27.7 µM and the TGI (PC-3 prostate) was 27.3 µM. It also gave a TGI (RPMI-8226 leukemia) of 36.8 µM, a TGI (RXF 393 renal) of 10 µM and a TGI (SF-268 CNS) of 29.7 µM. The TGI (SF-295 CNS) was 27.7 µM, the TGI (SF-539 CNS) was 14.4 µM and the TGI (SK-MEL-2 melanoma) was 20.6 µM. The TGI (SK-MEL-28 melanoma) was 14.1 µM, the TGI (SK-MEL-5 melanoma) was 16.4 µM and the TGI (SK-OV-3 ovarian) was 17.4 µM. It also gave a TGI (SN12C renal) of 24.2 µM, a TGI (SNB-19 CNS) of 28.9 µM and a TGI (SNB-75 CNS) of 20.2 µM. For the same compound, the TGI (SW-620 colon) was 28.3 µM, the TGI (T-47D breast) was 15.1 µM and the TGI (TK-10 renal) was 22.2 µM. It also gave a TGI (U251 CNS) of 22.7 µM, a TGI (UACC-257 melanoma) of 19.9 µM and a TGI (UACC-62 melanoma) of 17.7 µM. It also gave a TGI (UO-31 renal) of 14.7 µM.
